Results as given in the NIST ThermoML archive (doi:10.1021/acs.jced.5b00242).

Assays:
[1] = Liquid; for mass density: Vibrating tube method
[2] = refractive index (Na D-line) (dimensionless); settings: 101 kPa, Liquid, Standard Abbe refractometry
[3] = xn = mol fraction of the nth substance listed; settings: 101 kPa, Liquid, x1 = 1; for mass density: Vibrating tube method
[4] = refractive index (Na D-line) (dimensionless); xn = mol fraction of the nth substance listed; settings: 101 kPa, Liquid, Standard Abbe refractometry, x1 = 1

CCn1cc[n+](C)c1.O=C([O-])[C@@H]1CCCN1 [1-ethyl-3-methyl-1H-imidazolium L-prolinate]
[1], 101 kPa, Stabinger Viscometer
Settings | viscosity [mPa·s]
293.15 K | 1928.4
298.15 K | 1194.6
303.15 K | 771.51
308.15 K | 517.61
313.15 K | 359.21
318.15 K | 256.92
323.15 K | 188.66
328.15 K | 141.76
333.15 K | 108.85
338.15 K | 85.12
343.15 K | 67.69
348.15 K | 54.73
353.15 K | 44.89

[1], 101.33 kPa
Settings | mass density [kg/m3]
293.15 K | 1145.9
298.15 K | 1142.8
303.15 K | 1139.6
308.15 K | 1136.4
313.15 K | 1133.2
318.15 K | 1130.1
323.15 K | 1127.1
328.15 K | 1124
333.15 K | 1121
338.15 K | 1118
343.15 K | 1115
348.15 K | 1112
353.15 K | 1109.1

[2]
Settings | refractive index
293.15 K | 1.52291
298.15 K | 1.52151
303.15 K | 1.52009
308.15 K | 1.5187
313.15 K | 1.51731
318.15 K | 1.51591
323.15 K | 1.51454
328.15 K | 1.51315
333.15 K | 1.51177
338.15 K | 1.51035
343.15 K | 1.50897
348.15 K | 1.50757
353.15 K | 1.5062

CCn1cc[n+](C)c1.N#C[C-](C#N)C#N [1-ethyl-3-methyl-1H-imidazolium tricyanomethanide]
[1], 101 kPa, Stabinger viscometer
Settings | viscosity [mPa·s]
293.15 K | 16.62
298.15 K | 14.19
303.15 K | 12.18
308.15 K | 10.58
313.15 K | 9.02
318.15 K | 8.2
323.15 K | 7.31
328.15 K | 6.56
333.15 K | 5.72
338.15 K | 5.38
343.15 K | 4.91
348.15 K | 4.5
353.15 K | 3.98

[1], 101 kPa
Settings | mass density [kg/m3]
293.15 K | 1085
298.15 K | 1081
303.15 K | 1077
308.15 K | 1074
313.15 K | 1070
318.15 K | 1067
323.15 K | 1064
328.15 K | 1060
333.15 K | 1057
338.15 K | 1054
343.15 K | 1050
348.15 K | 1047
353.15 K | 1043

[2]
Settings | refractive index
293.15 K | 1.51454
298.15 K | 1.51286
303.15 K | 1.51114
308.15 K | 1.50938
313.15 K | 1.50765
318.15 K | 1.50595
323.15 K | 1.50419
328.15 K | 1.50255
333.15 K | 1.50087
338.15 K | 1.49921
343.15 K | 1.49757
348.15 K | 1.49593
353.15 K | 1.49429

CCn1cc[n+](C)c1.N#C[C-](C#N)C#N [1-ethyl-3-methyl-1H-imidazolium tricyanomethanide] + CC[n+]1ccn(C)c1.N[C@@H](CO)C(=O)[O-]
[3], Stabinger Viscometer
Settings | viscosity [mPa·s]
293.15 K | 16.62
298.15 K | 14.19
303.15 K | 12.18
308.15 K | 10.58
313.15 K | 9.02
318.15 K | 8.2
323.15 K | 7.31
328.15 K | 6.56
333.15 K | 5.72
338.15 K | 5.38
343.15 K | 4.91
348.15 K | 4.5
353.15 K | 3.98

Settings | mass density, [3] [kg/m3] | refractive index, [4]
293.15 K | 1084.6 | 1.51454
298.15 K | 1081 | 1.51286
303.15 K | 1077.5 | 1.51114
308.15 K | 1073.9 | 1.50938
313.15 K | 1070.4 | 1.50765
318.15 K | 1067.1 | 1.50595
323.15 K | 1063.7 | 1.50419
328.15 K | 1060.3 | 1.50255
333.15 K | 1056.9 | 1.50087
338.15 K | 1053.6 | 1.49921
343.15 K | 1050.2 | 1.49757
348.15 K | 1046.8 | 1.49593
353.15 K | 1043.4 | 1.49429

CCn1cc[n+](C)c1.N#C[C-](C#N)C#N [1-ethyl-3-methyl-1H-imidazolium tricyanomethanide] + CCn1cc[n+](C)c1.C[C@H](N)C(=O)[O-]
[3], Stabinger Viscometer
Settings | viscosity [mPa·s]
293.15 K | 16.62
298.15 K | 14.19
303.15 K | 12.18
308.15 K | 10.58
313.15 K | 9.02
318.15 K | 8.2
323.15 K | 7.31
328.15 K | 6.56
333.15 K | 5.72
338.15 K | 5.38
343.15 K | 4.91
348.15 K | 4.5
353.15 K | 3.98

Settings | mass density, [3] [kg/m3] | refractive index, [4]
293.15 K | 1084.6 | 1.51454
298.15 K | 1081 | 1.51286
303.15 K | 1077.5 | 1.51114
308.15 K | 1073.9 | 1.50938
313.15 K | 1070.4 | 1.50765
318.15 K | 1067.1 | 1.50595
323.15 K | 1063.7 | 1.50419
328.15 K | 1060.3 | 1.50255
333.15 K | 1056.9 | 1.50087
338.15 K | 1053.6 | 1.49921
343.15 K | 1050.2 | 1.49757
348.15 K | 1046.8 | 1.49593
353.15 K | 1043.4 | 1.49429

CCn1cc[n+](C)c1.N#C[C-](C#N)C#N [1-ethyl-3-methyl-1H-imidazolium tricyanomethanide] + CCn1cc[n+](C)c1.NCC(=O)[O-]
[3], Stabinger viscometer
Settings | viscosity [mPa·s]
293.15 K | 16.62
298.15 K | 14.19
303.15 K | 12.18
308.15 K | 10.58
313.15 K | 9.02
318.15 K | 8.2
323.15 K | 7.31
328.15 K | 6.56
333.15 K | 5.72
338.15 K | 5.38
343.15 K | 4.91
348.15 K | 4.5
353.15 K | 3.98

Settings | mass density, [3] [kg/m3] | refractive index, [4]
293.15 K | 1084.6 | 1.51454
298.15 K | 1081 | 1.51286
303.15 K | 1077.5 | 1.51114
308.15 K | 1073.9 | 1.50938
313.15 K | 1070.4 | 1.50765
318.15 K | 1067.1 | 1.50595
323.15 K | 1063.7 | 1.50419
328.15 K | 1060.3 | 1.50255
333.15 K | 1056.9 | 1.50087
338.15 K | 1053.6 | 1.49921
343.15 K | 1050.2 | 1.49757
348.15 K | 1046.8 | 1.49593
353.15 K | 1043.4 | 1.49429

CCn1cc[n+](C)c1.N#C[C-](C#N)C#N [1-ethyl-3-methyl-1H-imidazolium tricyanomethanide] + CCn1cc[n+](C)c1.NCCS(=O)(=O)[O-]
[3], Stabinger Viscometer
Settings | viscosity [mPa·s]
293.15 K | 16.62
298.15 K | 14.19
303.15 K | 12.18
308.15 K | 10.58
313.15 K | 9.02
318.15 K | 8.2
323.15 K | 7.31
328.15 K | 6.56
333.15 K | 5.72
338.15 K | 5.38
343.15 K | 4.91
348.15 K | 4.5
353.15 K | 3.98

Settings | mass density, [3] [kg/m3] | refractive index, [4]
293.15 K | 1084.6 | 1.51454
298.15 K | 1081 | 1.51286
303.15 K | 1077.5 | 1.51114
308.15 K | 1073.9 | 1.50938
313.15 K | 1070.4 | 1.50765
318.15 K | 1067.1 | 1.50595
323.15 K | 1063.7 | 1.50419
328.15 K | 1060.3 | 1.50255
333.15 K | 1056.9 | 1.50087
338.15 K | 1053.6 | 1.49921
343.15 K | 1050.2 | 1.49757
348.15 K | 1046.8 | 1.49593
353.15 K | 1043.4 | 1.49429

CCn1cc[n+](C)c1.N#C[C-](C#N)C#N [1-ethyl-3-methyl-1H-imidazolium tricyanomethanide] + CCn1cc[n+](C)c1.O=C([O-])[C@@H]1CCCN1
[3], Stabinger Viscometer
Settings | viscosity [mPa·s]
293.15 K | 16.62
298.15 K | 14.19
303.15 K | 12.18
308.15 K | 10.58
313.15 K | 9.02
318.15 K | 8.2
323.15 K | 7.31
328.15 K | 6.56
333.15 K | 5.72
338.15 K | 5.38
343.15 K | 4.91
348.15 K | 4.5
353.15 K | 3.98

Settings | mass density, [3] [kg/m3] | refractive index, [4]
293.15 K | 1084.6 | 1.51454
298.15 K | 1081 | 1.51286
303.15 K | 1077.5 | 1.51114
308.15 K | 1073.9 | 1.50938
313.15 K | 1070.4 | 1.50765
318.15 K | 1067.1 | 1.50595
323.15 K | 1063.7 | 1.50419
328.15 K | 1060.3 | 1.50255
333.15 K | 1056.9 | 1.50087
338.15 K | 1053.6 | 1.49921
343.15 K | 1050.2 | 1.49757
348.15 K | 1046.8 | 1.49593
353.15 K | 1043.4 | 1.49429

CCn1cc[n+](C)c1.C[C@H](N)C(=O)[O-] [1-ethyl-3-methylimidazolium L-alaninate]
[1], 101 kPa, Stabinger Viscometer
Settings | viscosity [mPa·s]
293.15 K | 382.06
298.15 K | 263.98
303.15 K | 187.79
308.15 K | 137.47
313.15 K | 103.54
318.15 K | 79.34
323.15 K | 62.21
328.15 K | 49.69
333.15 K | 40.5
338.15 K | 33.22
343.15 K | 27.72
348.15 K | 23.38
353.15 K | 20.03

[1], 101.33 kPa
Settings | mass density [kg/m3]
293.15 K | 1126.3
298.15 K | 1123
303.15 K | 1119.8
308.15 K | 1116.6
313.15 K | 1113.5
318.15 K | 1110.5
323.15 K | 1107.5
328.15 K | 1104.4
333.15 K | 1101.3
338.15 K | 1098.3
343.15 K | 1095.2
348.15 K | 1092.1
353.15 K | 1088.9

[2]
Settings | refractive index
293.15 K | 1.51366
298.15 K | 1.51223
303.15 K | 1.51081
308.15 K | 1.50937
313.15 K | 1.50793
318.15 K | 1.50651
323.15 K | 1.50505
328.15 K | 1.50358
333.15 K | 1.50217
338.15 K | 1.50074
343.15 K | 1.49932
348.15 K | 1.49795
353.15 K | 1.49656
